In patent US7176222B2, “Syntheses of ureas” (Cytokinetics, Inc., priority 2004, dated 2007) one finds melting point data, which are given here for one compound.

The melting point is the temperature of the solid-liquid transition. Regarding `CC(=O)N1CCC[C@@H](Oc2cc(F)cc(NC(=O)Nc3cccnc3)c2)C1` [Example 1, (R)-1-[3-(1-Acetyl-piperidin-3-yloxy)-5-fluoro-phenyl]-3-pyridin-3-yl-urea], the melting point stood at 145 °C.
